Assay results: patent US8492368B2 (priority 2011, dated 2013)

What was measured:
[1] = system: rats suffering from TBI; conditions: 16 mg/kg, 72 hours post-injury, moderate to severe brain injury, FIG. 1, p<0.05; cited from earlier work
[2] = system: traumatic brain injury; conditions: cited from earlier work; for factors of cell death, brain swelling and inflammation: TBI
[3] = system: P-glycoprotein (PGP); assay: P-glycoprotein protein abundance in penumbral region of injured brain, FIG. 6; type: in vivo, rodents; conditions: 72 hours post-injury, vs vehicle and sham, p<0.05, FIG. 6
[4] = system: rats that have suffered a concussion (mTBI); assay: Morris Water Maze latency to platform in mTBI (concussion) model, FIG. 8; type: in vivo; conditions: vs vehicle-injured rats, p<0.05
[5] = system: severe TBI patients; conditions: six months; cited from earlier work
[6] = system: male reproductive function; conditions: males; cited from earlier work
[7] = system: glutathione reductase; conditions: 72 hours post-injury, compared to all other groups, FIG. 2, p<0.01; cited from earlier work
[8] = biological target: T1, progesterone receptor (PR) (Homo sapiens, UniProt P06401); conditions: cited from earlier work
T1 sequence (P06401 1-933): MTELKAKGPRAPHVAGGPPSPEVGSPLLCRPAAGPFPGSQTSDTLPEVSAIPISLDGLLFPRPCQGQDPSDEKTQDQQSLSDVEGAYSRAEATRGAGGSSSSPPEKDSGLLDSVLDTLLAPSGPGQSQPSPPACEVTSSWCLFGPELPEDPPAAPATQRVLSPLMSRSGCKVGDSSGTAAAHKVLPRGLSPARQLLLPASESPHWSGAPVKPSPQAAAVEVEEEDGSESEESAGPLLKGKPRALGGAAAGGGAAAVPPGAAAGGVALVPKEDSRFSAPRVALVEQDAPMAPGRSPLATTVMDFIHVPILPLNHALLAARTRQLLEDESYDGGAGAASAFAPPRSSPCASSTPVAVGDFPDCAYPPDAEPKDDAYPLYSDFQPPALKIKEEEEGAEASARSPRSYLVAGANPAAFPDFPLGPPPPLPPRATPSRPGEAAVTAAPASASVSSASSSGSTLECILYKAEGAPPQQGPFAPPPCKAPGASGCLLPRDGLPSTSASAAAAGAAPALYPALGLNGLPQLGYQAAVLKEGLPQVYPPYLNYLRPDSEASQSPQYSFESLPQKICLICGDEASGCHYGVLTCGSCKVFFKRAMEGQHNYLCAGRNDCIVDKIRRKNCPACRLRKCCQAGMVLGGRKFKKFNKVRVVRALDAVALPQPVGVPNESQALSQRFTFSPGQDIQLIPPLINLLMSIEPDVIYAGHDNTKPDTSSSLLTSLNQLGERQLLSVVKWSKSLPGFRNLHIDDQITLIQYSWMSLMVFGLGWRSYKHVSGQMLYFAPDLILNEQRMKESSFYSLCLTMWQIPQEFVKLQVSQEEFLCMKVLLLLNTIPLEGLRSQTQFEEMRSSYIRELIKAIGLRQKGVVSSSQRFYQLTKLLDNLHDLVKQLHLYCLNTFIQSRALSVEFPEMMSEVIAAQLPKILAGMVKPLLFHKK

| Compound | brain water content (measure of edema) [1] | factors of cell death (caspase-3) and gliosis (GFAP) ([2]; following injury) | protein abundance of P-glycoprotein (PGP) [3] | latency to platform, post-acute administration ([4]; 15 minutes post mTBI (1 hour post)) | latency to platform, prophylactic administration ([4]; 15 minutes prior to mTBI (1 hour prior)) | neurological outcomes long-term [5] | conversion of testosterone to dihydrotestosterone [6] | size of reproductive organs [6] | spermatogenesis [6] | factors of cell death, brain swelling and inflammation [2] | edema ([2]; both rodent sexes following injury) | genes promoting the inflammatory cascade: Bcl-2, IL-1β and Cxcl-10 ([2]; following TBI, previous study) | inflammatory factors (TNF-α and IL-1β) ([2]; following injury) | Neurological Severity Score (motor and cognitive functioning) ([2]; rats following injury) | anti-oxidant activity of glutathione reductase [7] | activation of PR-mediated transcription [8] |
| --- | --- | --- | --- | --- | --- | --- | --- | --- | --- | --- | --- | --- | --- | --- | --- | --- |
| CC(=O)[C@H]1CC[C@H]2[C@@H]3CC[C@H]4C[C@H](O)CC[C@]4(C)[C@H]3CC[C@]12C [ALLO, allopregnanolone] | normalizes brain water content | decreased |  |  |  |  |  |  |  |  |  |  |  |  |  |  |
| CC(=O)[C@H]1CC[C@H]2[C@@H]3CCC4=CC(=O)CC[C@]4(C)[C@H]3CC[C@]12C [Prog, progesterone] | normalizes brain water content | decreased | increase | decreases latency to platform | decreases latency to platform | better neurological outcomes | inhibits | reduces | suppresses | equivalently reduce | effectively attenuates | down-regulated | inhibiting | significant improvements |  |  |
| CC(=O)[C@@H]1CC[C@@H]2[C@H]3CCC4=CC(=O)CC[C@@]4(C)[C@@H]3CC[C@]21C [ent-Prog, ent-progesterone] | normalizes brain water content |  | increase |  |  |  |  |  |  | equivalently reduce |  |  |  |  | significantly increases | does not activate |
